Source: US20240174680A1, “CDK2 INHIBITORS AND METHODS OF USING THE SAME” (Cedilla Therapeutics, Inc., priority 2021, published 2024)

target: CDK2/Cyclin E1 (Homo sapiens, UniProt P24941); experiment: CDK2/Cyclin E1 Caliper LabChip EZ Reader mobility shift assay; assay type: biochemical; design: purchased Eurofins 14-475; conditions: read-out: Caliper Assay (CDK2/CCNE1): IC50
How it was run: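 Substrate-to-product conversion of fluorescent peptide (1.5 μM final) read by capillary electrophoresis after 100 min reaction, EDTA-quenched. Enzyme (2.5 nM final) and ATP (100 μM final) were preincubated 30 min with inhibitor dilutions first. % activity vs concentration fitted four-parameter for IC50.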

| Structure (SMILES) | IC50 |
| --- | --- |
| CO[C@H]1COCC[C@H]1NC(=O)[C@H]1CN(C(=O)c2cnn(Cc3ccccc3)c2)CC12CN(C(=O)[C@H]1CC1(C)C)C2 [I-134B] | > 10000 nM |
| CNC(=O)[C@@H](NC(=O)[C@H]1CN(C(=O)c2n[nH]c3ccccc23)CC12CN(C(=O)[C@H]1CC1(C)C)C2)[C@@H](C)OCc1ccccc1 [I-112B] | > 10000 nM |
| CNC(=O)[C@@H](NC(=O)[C@@H]1CN(C(=O)c2cncs2)CC12CN(CC1CCCC1)C2)[C@@H](C)OCC12CCC(CC1)OC2 [I-344, (S)—N-((2S,3R)-3-(2-oxabicyclo[2.2.2]octan-4-ylmethoxy)-1-(methylamino)-1-oxobutan-2-yl)-2-(cyclopentylmethyl)-6-(thiazole-5-carbonyl)-2,6-diazaspiro[3.4]octane-8-carboxamide] | > 10000 nM |
| CC1(C)C[C@@H]1C(=O)N1CC2(CN(C(=O)c3cnn(Cc4ccccc4)c3)C[C@H]2C(=O)N[C@H]2CCCN(CC3CCCCC3)C2)C1 [I-183] | > 10000 nM |
| CNC(=O)[C@@H](NC(=O)[C@H]1CN(C(=O)c2nccs2)CC12CN(C(=O)[C@H]1CC1(C)C)C2)[C@@H](C)OCC1CCCCC1 [I-146] | > 10000 nM |
| CNC(=O)[C@@H](NC(=O)[C@@H]1CN(C(=O)c2cncs2)CC12CN(Cc1ccco1)C2)[C@@H](C)OCC12CCC(CC1)OC2 [I-349] | > 10000 nM |
| Cc1noc([C@H](C)NC(=O)[C@H]2CN(C(=O)c3cnn(Cc4ccccc4)c3)CC23CN(C(=O)[C@H]2CC2(C)C)C3)n1 [I-158B] | > 10000 nM |
| C[C@H](NC(=O)[C@H]1CN(C(=O)c2cnn(Cc3ccccc3)c2)CC12CN(C(=O)[C@H]1CC1(C)C)C2)c1cccc(F)c1 [I-127B] | > 10000 nM |
| CNC(=O)[C@@H](NC(=O)[C@H]1CN(C(=O)c2cnn(Cc3ccccc3)c2)CC12CN(C(=O)c1ccccc1)C2)[C@@H](C)OCc1ccccc1 [I-26B] | > 10000 nM |
| CNC(=O)[C@@H](NC(=O)[C@@H]1CN(C(=O)c2cnc(C(F)(F)F)s2)CC12CN(C(=O)[C@H]1CC1(C)C)C2)[C@@H](C)OCC1CCCCC1 [I-161A] | > 10000 nM |
| CC1(C)C[C@@H]1C(=O)N1CC2(CN(C(=O)c3cnn(Cc4ccccc4)c3)C[C@@H]2C(=O)NC2CCCN(C(=O)c3ccccc3)C2)C1 (some centres unmarked) [I-59B] | > 10000 nM |
| CO[C@H]1COCC[C@@H]1NC(=O)[C@H]1CN(C(=O)c2cnn(Cc3ccccc3)c2)CC12CN(C(=O)[C@H]1CC1(C)C)C2 [I-148B] | > 10000 nM |
| CNC(=O)[C@@H](NC(=O)[C@H]1CN(C(=O)c2scnc2C(C)(C)C)CC12CN(C(=O)[C@H]1CC1(C)C)C2)[C@@H](C)OCC1CCCCC1 [I-231B] | > 10000 nM |
| COc1cccc(CNC(=O)[C@H]2CN(C(=O)c3cnn(Cc4ccccc4)c3)CC23CN(C(=O)[C@H]2CC2(C)C)C3)n1 [I-126B] | > 10000 nM |
| CNC(=O)[C@@H](NC(=O)[C@H]1CN(Cc2cccnc2)CC12CN(C(=O)[C@H]1CC1(C)C)C2)[C@@H](C)OCc1ccccc1 [I-49B] | > 10000 nM |
| CC1(C)C[C@@H]1C(=O)N1CC2(CN(C(=O)c3cnn(Cc4ccccc4)c3)C[C@H]2C(=O)NC2CCCN(C(=O)c3ccccc3)C2)C1 (some centres unmarked) [I-59A] | > 10000 nM |
| CNC(=O)[C@@H](NC(=O)[C@H]1CN(Cc2cncs2)CC12CN(C(=O)[C@H]1CC1(C)C)C2)[C@@H](C)OCc1ccccc1 [I-51B] | > 10000 nM |
| CNC(=O)[C@@H](NC(=O)[C@@H]1CN(C(=O)c2cnn(Cc3ccccc3)c2)CC12CN(C(=O)[C@H]1CC1(C)C)C2)[C@@H](C)O [I-88A, (S)-6-(1-benzyl-1H-pyrazole-4-carbonyl)-2-((S)-2,2-dimethylcyclopropane-1-carbonyl)-N-((2S,3R)-3-hydroxy-1-(methylamino)-1-oxobutan-2-yl)-2,6-diazaspiro[3.4]octane-8-carboxamide] | > 10000 nM |
| CNC(=O)[C@@H](NC(=O)[C@@H]1CN(C(=O)c2cccnc2)CC12CN(C(=O)[C@H]1CC1(C)C)C2)[C@@H](C)OCc1ccccc1 [I-42A] | 1000 to 10000 nM |

The remaining lines, values ahead:

| IC50 | Structure (SMILES) |
| --- | --- |
| 100 to 1000 nM | CNC(=O)[C@@H](NC(=O)[C@@H]1CN(C(=O)c2cnn(Cc3ccccc3)c2)CC12CN(C(=O)CC(C)C)C2)[C@@H](C)OCc1ccccc1 [I-69A] |
| ≤ 10 nM | C[C@@H](OCC1CCC(F)(F)CC1)[C@H](NC(=O)[C@@H]1CN(C(=O)c2cncs2)CC12CN(C(=O)C(C)(C)C1CC1)C2)C(=O)N1CCC(O)CC1 [I-337] |
| 1000 to 10000 nM | CNC(=O)[C@@H](NC(=O)[C@@H]1CN(C(=O)c2cnn(Cc3ccccc3)c2)CC12CN(C(=O)C1(CCF)CC1)C2)[C@@H](C)OCc1ccccc1 [I-117A] |
| 100 to 1000 nM | CC1(C)C[C@@H]1C(=O)N1CC2(CN(C(=O)c3cncs3)C[C@H]2C(=O)NC(c2cccc(C3CCCCC3)n2)P(C)(C)=O)C1 (some centres unmarked) [I-494] |
| ≤ 10 nM | C[C@@H](OCC1CCCCC1)[C@H](NC(=O)[C@@H]1CN(C(=O)c2cnn(Cc3ccccc3)c2)CC12CN(C(=O)[C@H]1CC1(C)C)C2)C(=O)N1CC2(CNC2)C1 [I-240] |
| 10 to 100 nM | COC[C@H]1CCCN(C(=O)[C@@H](NC(=O)[C@@H]2CN(C(=O)c3cncs3)CC23CN(C(=O)[C@H]2CC2(C)C)C3)[C@@H](C)OCc2ccccc2F)C1 [I-321] |
| ≤ 10 nM | C[C@@H](OCC1CCC(F)(F)CC1)[C@H](NC(=O)[C@@H]1CN(C(=O)c2cn[nH]c2)CC12CN(C(=O)[C@H]1CC1(C)C)C2)C(=O)N1CCC(F)(F)CC1 [I-228A] |
| 100 to 1000 nM | CNC(=O)[C@@H](NC(=O)[C@@H]1CN(C(=O)c2sc(C(C)C)nc2C)CC12CN(C(=O)[C@H]1CC1(C)C)C2)[C@@H](C)OCC1CCCCC1 [I-227A] |
| 1000 to 10000 nM | CC1(C)C[C@@H]1C(=O)N1CC2(CN(C(=O)c3cnn(Cc4ccccc4)c3)C[C@@H]2C(=O)N2CCC(Cc3ccccc3)CC2)C1 [I-58B] |
| 1000 to 10000 nM | CN(C(=O)[C@H]1CCCN(C(=O)[C@@H]2CN(C(=O)c3cnn(Cc4ccccc4)c3)CC23CN(C(=O)[C@H]2CC2(C)C)C3)C1)C1CCCCC1 [I-179] |
| 1000 to 10000 nM | CC1(C)C[C@@H]1C(=O)N1CC2(CN(C(=O)c3cnn(Cc4ccccc4)c3)C[C@H]2C(=O)N[C@H]2CCCN(C(=O)C3CCCCC3)C2)C1 [I-182] |
| ≤ 10 nM | COC[C@H]1CCCN(C(=O)[C@@H](NC(=O)[C@@H]2CN(C(=O)c3cncs3)CC23CN(C(=O)[C@H]2CC2(C)C)C3)[C@@H](C)OC(C)C2CCCCC2)C1 (some centres unmarked) [I-374] |
| ≤ 10 nM | C[C@@H](OCC1CCC(F)(F)CC1)[C@H](NC(=O)[C@@H]1CN(C(=O)c2cnn(Cc3ccc(F)cc3)c2)CC12CN(C(=O)[C@H]1CC1(C)C)C2)C(N)=O [I-203] |
| 100 to 1000 nM | CNC(=O)C(NC(=O)[C@@H]1CN(C(=O)c2cncs2)CC12CN(C(=O)[C@H]1CC1(C)C)C2)c1cccc(N2CC3(CC(C(F)(F)F)C3)C2)n1 (some centres unmarked) [I-430] |
| 100 to 1000 nM | CC1(C)C[C@@H]1C(=O)N1CC2(CN(C(=O)c3cnn(Cc4ccccc4)c3)C[C@H]2C(=O)Nc2ccc(Cc3ccccc3)nc2)C1 [I-139, (S)-6-(1-benzyl-1H-pyrazole-4-carbonyl)-N-(6-benzylpyridin-3-yl)-2-((S)-2,2-dimethylcyclopropane-1-carbonyl)-2,6-diazaspiro[3.4]octane-8-carboxamide] |
| ≤ 10 nM | C[C@@H](OCC1CCCCC1)[C@H](NC(=O)C1CN(C(=O)c2cnn(Cc3ccccc3)c2)CC12CN(C(=O)[C@H]1CC1(C)C)C2)C(=O)N1CCCCC1 (some centres unmarked) [I-194 mixture] |
| 100 to 1000 nM | CNC(=O)[C@@H](NC(=O)[C@@H]1CN(C(=O)c2cncs2)CC12CN(C(=O)[C@H]1CC1(C)C)C2)[C@@H](C)OCc1ccccc1 [I-24A, (S)—N-((2S,3R)-3-(benzyloxy)-1-(methylamino)-1-oxobutan-2-yl)-2-((S)-2,2-dimethylcyclopropane-1-carbonyl)-6-(thiazole-5-carbonyl)-2,6-diazaspiro[3.4]octane-8-carboxamide] |
| 10 to 100 nM | C[C@@H](OCc1ccccc1)[C@H](NC(=O)C1CN(C(=O)c2cnn(Cc3ccccc3)c2)CC12CN(C(=O)[C@H]1CC1(C)C)C2)C(=O)NCC#CCO (some centres unmarked) [I-20] |
| ≤ 10 nM | C[C@@H](OCC1CCCCC1)[C@H](NC(=O)[C@@H]1CN(C(=O)c2cnn(Cc3ccccc3)c2)CC12CN(C(=O)[C@H]1CC1(C)C)C2)C(=O)N1CCC(c2ncc[nH]2)CC1 [I-446] |
| 1000 to 10000 nM | [2H]C([2H])([2H])NC(=O)C(NC(=O)[C@@H]1CN(C(=O)c2cncs2)CC12CN(C(=O)[C@H]1CC1(C)C)C2)c1cccc(N2CCOCC2)n1 (some centres unmarked) [I-18] |
| ≤ 10 nM | C[C@@H](OCC1CCCCC1)[C@H](NC(=O)[C@@H]1CN(C(=O)c2cnn(Cc3ccccc3)c2)CC12CN(C(=O)[C@H]1CC1(C)C)C2)C(=O)O [I-477] |
| ≤ 10 nM | C[C@@H](OCC1CCC(F)(F)CC1)[C@@H](COC1CCOCC1)NC(=O)[C@@H]1CN(C(=O)c2cncs2)CC12CN(C(=O)[C@H]1CC1(C)C)C2 [I-314] |
| 100 to 1000 nM | CNC(=O)[C@@H](NC(=O)[C@H]1CN(C(=O)c2cnn(Cc3ccccc3)c2)CC12CN(C(=O)[C@H]1CC1(C)C)C2)[C@@H](C)OCC1CCC(C(F)(F)F)CC1 (some centres unmarked) [I-141B] |
| ≤ 10 nM | CNC(=O)[C@@H](NC(=O)[C@@H]1CN(C(=O)c2cnc(COC(C)(C)C)s2)CC12CN(C(=O)[C@H]1CC1(C)C)C2)[C@@H](C)OCC1CCCCC1 [I-175A] |
| 1000 to 10000 nM | C[C@@H](OCC1CCC(F)(F)CC1)[C@H](NC(=O)[C@H]1CN(C(=O)c2cn[nH]c2)CC12CN(C(=O)C1(C(F)(F)F)CC1)C2)C(=O)N1CCC(F)(F)CC1 [I-188B] |
| 10 to 100 nM | CNC(=O)[C@@H](NC(=O)[C@H]1CN(C(=O)c2cnn(Cc3ccccc3)c2)CC12CN(C(=O)[C@H]1CC1(C)C)C2)[C@@H](C)OCCC1CCCCC1 [I-125B] |
| 1000 to 10000 nM | CNC(=O)[C@@H](NC(=O)C1CN(C(=O)c2cnn(Cc3ccccc3)c2)CC12CN(C(=O)[C@H]1CC1(C)C)C2)[C@@H](C)OCc1ccccn1 (some centres unmarked) [I-257] |
| 100 to 1000 nM | CNC(=O)[C@@H](NC(=O)[C@@H]1CN(C(=O)c2cnn(Cc3ccccc3)c2)CC12CN(C(=O)C1(F)CC1)C2)[C@@H](C)OCc1ccccc1 [I-71A] |
